Laboratory results taken from publication PMC10728902, “β-L-Arabinofurano-cyclitol Aziridines Are Covalent Broad-Spectrum Inhibitors and Activity-Based Probes for Retaining β-L-Arabinofuranosidases” (ACS Chemical Biology, 2023).
Read-outs that look alike come from different tables or passages of the source.

Experiments:
rHypBA1 = biological target: T1, rHypBA1 (Bifidobacterium longum, UniProt E8MGH8); assay: inactivation kinetics, residual hydrolysis of 4-nitrophenyl beta-L-arabinofuranoside, A405; assay type: biochemical
T1 construct: gene hypBA1; recombinant; 74 kDa; produced by published procedures
T1 sequence (E8MGH8 1-658): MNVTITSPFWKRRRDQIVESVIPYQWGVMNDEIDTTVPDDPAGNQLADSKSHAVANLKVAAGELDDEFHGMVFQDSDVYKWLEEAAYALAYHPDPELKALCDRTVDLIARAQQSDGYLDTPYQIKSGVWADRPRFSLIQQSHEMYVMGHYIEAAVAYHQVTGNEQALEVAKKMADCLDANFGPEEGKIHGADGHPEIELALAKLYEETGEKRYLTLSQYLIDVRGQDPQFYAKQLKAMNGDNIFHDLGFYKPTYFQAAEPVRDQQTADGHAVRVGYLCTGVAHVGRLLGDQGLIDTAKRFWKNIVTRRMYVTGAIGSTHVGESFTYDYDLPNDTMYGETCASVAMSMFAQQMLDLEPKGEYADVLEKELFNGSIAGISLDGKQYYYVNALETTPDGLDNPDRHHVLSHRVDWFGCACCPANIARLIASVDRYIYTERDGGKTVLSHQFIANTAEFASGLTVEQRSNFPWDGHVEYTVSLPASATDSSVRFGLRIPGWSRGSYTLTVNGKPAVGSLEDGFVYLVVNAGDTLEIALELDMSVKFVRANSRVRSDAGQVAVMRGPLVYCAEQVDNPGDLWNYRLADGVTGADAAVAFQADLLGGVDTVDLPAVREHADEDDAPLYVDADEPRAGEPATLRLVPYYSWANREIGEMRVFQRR
Source text: inactivation kinetics, residual hydrolysis of 4-nitrophenyl beta-L-arabinofuranoside, A405 on rHypBA1

rBtGH146 = biological target: T2, rBtGH146 (Bacteroides thetaiotaomicron, UniProt Q8AAW3); assay: as above; assay type: biochemical
T2 construct: gene BT_0349; recombinant, expressed in E. coli; 92 kDa on gel; produced by published procedures
T2 sequence (Q8AAW3 1-802): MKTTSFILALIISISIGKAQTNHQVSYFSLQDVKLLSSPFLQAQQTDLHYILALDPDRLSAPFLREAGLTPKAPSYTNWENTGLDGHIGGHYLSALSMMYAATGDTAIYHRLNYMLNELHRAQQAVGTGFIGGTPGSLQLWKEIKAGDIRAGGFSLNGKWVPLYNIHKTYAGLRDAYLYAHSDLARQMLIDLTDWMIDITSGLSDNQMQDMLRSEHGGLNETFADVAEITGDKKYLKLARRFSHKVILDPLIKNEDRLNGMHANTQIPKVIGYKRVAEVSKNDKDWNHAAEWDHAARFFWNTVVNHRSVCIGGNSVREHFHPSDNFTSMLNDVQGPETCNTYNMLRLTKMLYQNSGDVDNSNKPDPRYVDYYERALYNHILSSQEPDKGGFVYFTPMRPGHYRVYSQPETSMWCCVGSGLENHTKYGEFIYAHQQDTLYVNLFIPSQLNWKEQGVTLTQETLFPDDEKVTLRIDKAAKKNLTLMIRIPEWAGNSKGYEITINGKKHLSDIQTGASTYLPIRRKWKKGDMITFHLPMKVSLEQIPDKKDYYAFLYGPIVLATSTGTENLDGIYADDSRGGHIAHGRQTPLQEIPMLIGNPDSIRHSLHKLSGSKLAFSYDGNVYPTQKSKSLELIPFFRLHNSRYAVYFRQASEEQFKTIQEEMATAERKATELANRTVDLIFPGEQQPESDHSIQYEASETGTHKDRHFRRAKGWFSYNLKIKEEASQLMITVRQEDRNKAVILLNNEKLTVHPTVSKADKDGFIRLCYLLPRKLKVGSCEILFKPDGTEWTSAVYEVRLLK
Source text: inactivation kinetics, residual hydrolysis of 4-nitrophenyl beta-L-arabinofuranoside, A405 on rBtGH146

[1] = read-out: rBtGH146 / KI, covalent, time-dependent, pH 7.5 HEPES, 200 mM NaCl, 1 mM DTT, 37 °C

OC[C@H]1[C@H](O)[C@@H](O)[C@H]2N[C@@H]12 [compound 2, β-L-arabinofuranosyl cyclophellitol aziridine]
kinact/KI (rHypBA1): > 4200 M⁻¹ s⁻¹ | KI (inactivation) (rBtGH146; covalent, time-dependent, pH 7.5 HEPES, 200 mM NaCl, 1 mM DTT, 37 °C, read-out: rBtGH146 / KI): 350 ± 40 µM

CN1C(=CC=CC=CC2=[N+](CCCCCC(=O)NCCCCCCCCOC[C@H]3[C@H](O)[C@@H](O)[C@H]4O[C@@H]34)c3ccccc3C2(C)C)C(C)(C)c2ccccc21 [compound 4, Cy5-tagged epoxide ABP 4]
kinact/KI (rHypBA1): < 0.1 M⁻¹ s⁻¹ | KI (inactivation) (rBtGH146; [1]): 140 ± 10 µM

NCCCCCCCCN1[C@@H]2[C@H](O)[C@@H](O)[C@H](CO)[C@@H]21 (stereo partly drawn) [compound 7, aziridine 7]
KI (inactivation) (rHypBA1; read-out: rHypBA1 / KI, covalent, time-dependent, pH 4.5 acetate, 1 mM DTT, 37 °C): 280 ± 90 µM | KI (inactivation) (rBtGH146; [1]): 190 ± 20 µM
